Results taken from US20060183733A1, “Treating microvasculature diseases with acetyl cholinesterase inhibitors” (priority 2005, published 2006).
“Also recorded” adds a separate entry of the source. Where two headings read alike, the source gives them in different places.

Legend:
cutaneous blood flow = conditions: animal models; cited from earlier work
[1] = system: patients with GI or urinary side effects of an acetylcholinesterase inhibitor; assay: Treatment of side effects of acetylcholinesterase inhibitors (case histories); assay type: in vivo; conditions: for relief of urinary side effects (polyuria, frequency): Detrol / Detrol LA 2-4 mg daily with donepizil; for relief of GI side effects (nausea, diarrhea, frequent bowel movements, cramps): metoclopramide (Reglan) 5 mg before meals and at bedtime, with an acetylcholinesterase inhibitor
Excerpt: Metoclopramide (Reglan®) is an […].
The most extreme example of neuropathic pain arises following amputation where there is complete transection of the nerve. Pain complaints are difficult to manage with the usual combinations of anti-seizure drugs, tricyclic anti-depressants and narcotics.

[2] = system: patients with diabetic polyneuropathy; assay type: in vivo, human
Excerpt: The symptoms of motor and sensory loss of diabetic polyneuropathy are ameliorated by acetylcholinesterase inhibitions by increasing concentration of acetylcholine, the principle neurotransmitter of the parasympathetic nervous system. By augmenting the trophic input of nerves of parasympathic nervous system; pain and dyserethesia are diminished and weakness/atrophy of muscles are diminished. The clinical observation in non-Alzheimer's patients is an improvement in motor and sensory function following treatment with effective doses of an acetylcholinesterase inhibitor. Improved blood flow within the microvascular circulation supplying the vasovasorum of the nerves produces the beneficial effect. By restoring blood flow to the vasovasorum of the nerves ischemic pain is relieved and normal function of the nerve is allowed to occur. The process of vasodilatation of the microvascular circulation is mediated through both neuronal and non-neuronal acetylcholine receptors stimulation by acetylcholine. Enhancement in acetylcholine levels is effected through treatment with acetylcholinesterase inhibitors.
The physiologic shift favoring vasoconstriction that is associated with diabetes is reversed following administration of an acetylcholinesterase inhibitor allowing perfusion of the microvasculature, restoring blood flow to ischemic motor and sensory nerves damaged by the effects of diabetes.

[3] = system: regional blood flow in the brain; conditions: PET scanning; Alzheimer's patients and normal subjects; cited from earlier work
patients with lymphedema = assay type: in vivo, human
Excerpt: The improvement in perfusion within the small arterioles decreases the hydrostatic pressure at the end arterioles and therefore reduces interstitial fluid accumulation that impedes the return of lymph fluid within the lymphatic vessels. The physics model for this phenomenon makes use of Bernouli's equation and its relationship to a Venturi tube. Hydrostatic pressure proximal to a relative stricture creates a pressure gradient that leads to increased transudation that overwhelms the capacity of the lymphatic system to manage. The vasodilatory effects of the parasympathetic nervous system upon small arterioles produces improved perfusion and lessens the accumulation of lymphedema. A common example of lymphedema occurs following joint replacement surgery with swelling that persists for three to six months and sometimes permanently. Lymphedema following joint replacement surgery slows recovery and creates pain while predisposing to deep vein thrombosis and infection.

[4] = system: patients with neuropathic pain; conditions: rivastigmine test dose
[5] = system: patients with myofascial pain / fibromyalgia; assay: Patient case histories: fibromyalgia / myofascial pain syndrome; assay type: in vivo, human
Excerpt: The present invention provides a method for treating fibromyalgia and myofascial pain syndrome by increasing tissue levels of acetylcholine. Acetylcholine is the neurotransmitter of the parasympathic nervous system. The inventive method increases the relative amount of parasympathetic transmission and thereby facilitates resolution of the pain areas and diminishes the need for narcotics and polypharmacy. The reduction in the use of narcotics, NSAIDs, and tricyclic antidepressants and other medications used for pain having their deleterious side effects is a major benefit. By administration of acetyl cholinesterase inhibitor, the relative concentrations of acetylcholine are increased and available to propagate the impulses of the parasympathic nervous systems and within the non-neuronal acetylcholine receptors diminishing pain and spasms. […] The influence of non-neuronal acetylcholine receptors affected by enhanced levels of acetylcholine produces a reduction in pro-inflammatory mediators and increased blood flow to the nerve fibers involved in pain transmission. The net effect is a reduction in inflammation and improved blood flow to the vasovasorum of the affected nerves reducing the painful sensations.

[6] = system: patients with rheumatologic conditions (RA, SLE, PMR, polymyositis); assay: Patient case histories: rheumatological conditions; assay type: in vivo, human
Excerpt: The use of an acetylcholinesterase inhibitor raises level of acetylcholine by inhibition of cholinesterase. The Increased levels of acetylcholine stimulate neuronal receptors of the parasympathetic nervous system and non-neuronal receptors associated with the intima of blood vessels and leukocytes. This dual effect of improving flow within the microvascular circulation and stabilization of leukocytes and their adhesion to the wall of blood vessel produces the anti-inflammatory effect that is observed with the use of an acetylcholinesterase inhibitor for treatment of rheumatologic diseases.

[7] = system: patients with Parkinson's disease; conditions: rivastigmine 1.5-3 mg twice daily
[8] = system: patients with chronic renal insufficiency; assay: Patient case histories: chronic renal insufficiency (serum creatinine, BUN); assay type: in vivo, human; conditions: galantamine 4 mg orally three times daily
Excerpt: To postpone or avoid the sequelae of chronic renal insufficiency, treatment with acetylcholinesterase inhibitors increase the concentration of acetycholine available to promote blood flow to the renal cortex preventing loss of nephrons and allowing existing renal parenchyma to provide the vital function of the kidney. Just as parasympathetic outflow provide homeostatic neural input to the elimination of function of the intestine, the same parasympathetic innervation provides vasodilatation of the small arterioles supplying the cortex of the kidneys allowing for optimal functioning.

[9] = system: patients with urinary retention; assay: Patient case histories: urinary retention (voiding trials, post void residuals); conditions: for post void residuals (PVR's): before 150-200 cc
[10] = system: patients with Multiple Sclerosis; assay type: in vivo, human; conditions: galantamine 4 mg orally three times daily, foley catheter removed 48 hours later
Excerpt: The present invention provides an acetylcholinesterase inhibitor to increase the relative concentration of […] within the central nervous system to improve parasympathetic neural transmission and combat the features of M. S. that often present in a craniosacral distribution. Cranial symptoms include mental status changes, emotional lability as well as optic dysfunction and nystgmus. Cranial nerves that control extracular muscles are also affected. Cranial involvement can also manifest as swallowing problems with frank dysphagia. The sacral manifestations of parasympathic dysfunction relate to bowel and bladder control. The symptoms of spastic bladder, urinary retention and constipation are relieved by treatment with an Acetylcholinesterase inhibitor raising the concentrations of acetylcholine to enhance the neural transmission of the parasympathetic nervous system to facilitate normal bowel and bladder function. The craniosacral manifestations of M.S. are reflected in dysfunctional neural transmission associated with the parasympathetic nervous system and can be ameliorated or corrected by treatment with an acetylcholinesterase inhibitor. Improved blood flow within the vasovasorum of the myelin sheath/nerve is also considered useful in amelioration of MS symptoms. […]

[11] = system: patients with peripheral vascular disease and diabetes mellitus; assay: Patient case histories: microvascular disease / vascular insufficiency; assay type: in vivo, human; conditions: galantamine 4-8 mg two to four times daily
Excerpt: In summary, vascular insufficiency from diabetes is associated with compromise of the microvascular circulation. Treatment with an effective dose of an acetylcholinesterase inhibitor raises the relative concentration of acetylcholine promoting vasodilitation of the microcirculation (end arterioles) through stimulation of neuronal and non-neuronal acetylcholine receptors in the intima of the blood vessels. The beneficial effects of promoting vasodilitation and enhanced tissue perfusion correcting the dystrophic changes and alleviating ischemic pain and ulcers is readily apparent in this series of patients.
The present invention provides a method for the medical management of peripheral vascular disease. The management of peripheral vascular disease with acetylcholinesterase inhibitor addresses the central dilemma in vascular perfusion of the lower extremities. By increasing the relative concentration of acetylcholine, the parasympthetic nervous system is enhanced, improving blood flow at the tissue level by relaxation of the small end arterioles and improving perfusion therefore decreasing vascular edema, enhancing resolution of trohpic ulcers and alleviating rest pain and claudication complaints. The parasympathetic nervous system controls vascular beds in the small arterioles and by increasing the available acetylcholine, dilatation occurs and blood flow improves. By treatment with acetylcholinesterase inhibitors the end results in improved vascular blood supply, decreased congestion at the small arterioles level and improved blood supply. This is particularly necessary in diabetic patients. The presence of non-neuronal acetylcholine receptors with the intima of blood vessels at the microvascular level represents a second physiologic mechanism whereby dilatation of small blood vessels is facilitated by the use of an acetylcholinesterase inhibitor. This latter mechanism owing to the sensitive nature of the cholinesterases associated with the non neuronal acetylcholine system provides sustained cholinergic activity impacting the microvascular circulation and improving perfusion at the critical end arteriole-capillary-venule level.

[12] = system: patients with phantom pain; assay: Patient case histories: phantom pain following amputation; assay type: in vivo, human
Excerpt: The present invention further provides a method of treating phantom pain following amputation in both upper and lower extremities. “Phantom pain” is a phenomenon described following amputation of either an upper or lower extremity. The sensation is common following amputation and present with varying degrees of discomfort and debility. A patient with phantom pain is typically treated with antidepressants, Neurontin® (gabapeninand) narcotics to a varying degree. The use of acetylcholinesterase inhibitors decreases the need for narcotics and generally eliminates the need for poly pharmacy improving pain, enhancing wound healing and improved sleep pattern in amputee patients. The dose of acetylcholinesterase inhibitor is titrated to GI (gastrointestinal) tolerance with bowel movement consistency and frequency the determining factors. Treatment with acetylcholinesterase inhibitor increases the available acetylcholine which is the neurotransmitter responsible for activation of the parasysmpathic nervous system appear responsible for Noxious symptoms of phantom pain for discomfort. The present invention provides a method of treating phantom pain associated with amputation of either upper or lower extremity.

[13] = rivastigmine 1.5 mg twice daily

SMILES: CC(=O)OC(C)C[N+](C)(C)C (stereo not shown) [Methacholine]
- cutaneous blood flow and skin temperature (cutaneous blood flow): increases cutaneous blood flow and skin temperature

SMILES: Cc1ccc(O)c([C@H](CCN(C(C)C)C(C)C)c2ccccc2)c1 [Detrol LA, tolterodine]
- relief of urinary side effects (polyuria, frequency) [1]: prompt reduction in their urinary frequency; also recorded: able to tolerate this regimen
- relief of urinary side effects (polyuria, frequency) ([1]; listed as Detrol): treated successfully

SMILES: CCN(C)C(=O)Oc1cccc([C@H](C)N(C)C)c1 [rivastigmine]
- course after the drug was withdrawn or lapsed ([2]; drug stopped after initial improvement): complaints of weakness and loss of ambulatory ability
- regional blood flow in the brain / CNS structures [3]: Regional blood flow is increased; also recorded: improve blood flow to CNS structures; also recorded: improve regional blood flow in the brain
- side effects (patients with lymphedema; [13]): no ill side effects
- clinical outcome (phantom pain) [4]: notable improvement in their phantom pain within one hour
- side effects ([5]; rivastigmine): no ill effects; also recorded: no adverse side effects
- clinical outcome (pain) [5, 13]: significant improvement; also recorded: greater control of their pain
- clinical outcome (pain) ([5]; rivastigmine 3 mg twice daily): near complete alleviation in their pain; also recorded: pain symptoms became less frequent
- clinical outcome (narcotic use) ([5]; rivastigmine 4 mg orally twice daily titrated upward to 8 mg three times daily): use of narcotics was completely eliminated
- clinical outcome (swelling, warmth, pain) ([6]; rivastigmine 1.5 mg orally twice daily, Rheumatoid Arthritis flair-up): signs of swelling and warmth improved but the patient still had complaints of pain
- clinical outcome (pain, swelling) ([6]; rivastigmine 3 mg orally twice daily, Rheumatoid Arthritis flair-up): pain symptoms resolved within a day; also recorded: concomitant improvement in their lower extremity swelling
- side effects ([6]; rivastigmine 1.5-3 mg twice daily): no adverse side effects such as dyspepsia, diarrhea or polyuria
- recurrence under prophylaxis ([6]; rivastigmine lower dose for prophylaxis, three month): no recurrence of pain or swelling
- side effects [7]: no negative side effects

SMILES: COc1ccc2c3c1O[C@H]1C[C@@H](O)C=C[C@@]31CCN(C)C2 [galantamine]
- improvement in Left foot drop ([2]; galantamine titrated to 8 mg TID (a person)): 80-85%
- serum creatinine ([8]; before treatment 1.8): 1.4
- BUN (blood urea nitrogen) ([8]; before treatment 32): 21
- post void residuals (PVR's) ([9]; galantamine 4 mg orally three times daily): under 100 cc
- side effects ([9]; galantamine 4 mg three times daily to 8 mg two or three times daily): no untoward side effects; also recorded: mild nausea (without emesis)
- post void residuals (PVR's) ([9]; galantamine 8 mg orally twice daily): ~50 cc
- post void residuals [10]: < 100 cc
- side effects (patients with lymphedema; galantamine 4 mg orally three times daily, asthma patient): without compromise of their pulmonary condition
- side effects [11]: No symptoms of diarrhea or gastroesophageal reflux disease (GERD) were reported; also recorded: no untoward side effects
- side effects ([6]; galantamine 4-8 mg three times daily): no adverse side effects of diarrhea or nausea
- side effects ([12]; galantamine 4 mg BID titrated to four times a day): without nausea/vomiting or GI upset
- use of Oxycodone/APAP ([12]; galantamine 8 mg BID over two weeks, before: 5 tablets per day): 2-3 tablets per week

SMILES: CCN(CC)CCNC(=O)c1cc(Cl)c(N)cc1OC [Reglan, metoclopramide]
- relief of GI side effects (nausea, diarrhea, frequent bowel movements, cramps) [1]: able to continue treatment with donepizil; also recorded: prompt resolution of their GI complaints; also recorded: prompt relief of their GI complaints; also recorded: treated successfully
- relief of GI side effects (nausea, diarrhea, frequent bowel movements, cramps) ([1]; listed as metoclopramide): easily managed; also recorded: ameliorated or eliminated

SMILES: CCOc1ccccc1OCCN[C@H](C)Cc1ccc(OC)c(S(N)(=O)=O)c1 [Flomax]
- voiding trial ([9]; Flomax 0.4 mg, then 0.8 mg, residuals in excess of 300 cc's before): first voiding trial was unsuccessful; also recorded: second voiding trial was also unsuccessful
